From patent US4719207A, “CNS active substituted azetidinone compounds” (Yamanouchi Pharmaceutical Co., Ltd., priority 1984, dated 1988)
Read-outs that look alike come from different tables or passages of the source.

Key:
mice = assay: Reversal effect against pentobarbital-induced hypothermia (Experiment 1); format: in vivo; conditions: i.v., 10 minutes after pentobarbital (55 mg/kg i.p.), rectal temperature 30 minutes after test compound, dose required to reduce pentobarbital-hypothermia by 1.5° C.; for ED (1.5 degC): Mus musculus, iv, 0.5 h, read-out: Reversal effect against pentobarbitalhypothermia ED1.5° C
Experimental: The following experiments show the action on low body temperature induced by pentobarbital (Experiment 1), and on acute toxicity for typical compounds of the present invention.
Pentobarbital-induced hypothermia
Nine male mice weighing 18 to 22 g were used for each dosage of the test compounds. Mice were given intravenously various doses of test compounds 10 minutes after pentobarbital (55 mg/kg i.p.). Rectal temperature was measured before pentobarbital dosing and immediately before and 30 minutes after the test compounds. Effects of test compounds were evaluated as ED1.5° C., the dose required to reduce by 1.5° C. pentobarbital-hypothermia of control group of mice which received only pentobarbital and saline. The results are shown in Talbe 1.
(A) Reversal effect against pentobarbitalhypothermia ED1.5° C

Acute toxicity (i.v.) = assay: Acute toxicity (i.v.); set-up: species or system mice; conditions: mouse, in vivo, iv
Experimental: That is, LD50 (i.v.) of the compound of the present invention was higher than 800 mg/kg.

| Structure (SMILES) | ED (1.5 degC) (mice) [mg/kg] | also measured |
| --- | --- | --- |
| C[C@H]1C(=O)N[C@@H]1C(=O)N[C@@H](Cc1cn(C)cn1)C(=O)N1CCC[C@H]1C(N)=O [.tau.-Methyl-N^α --[(2S,3R)--3-methyl-4-oxo-2-azetidinyl-carbonyl]-L-histidyl-L-prolinamide] | 0.02 |  |
| NC(=O)[C@@H]1CCCN1C(=O)[C@H](Cc1c[nH]cn1)NC(=O)[C@H]1NC(=O)[C@@H]1Cc1ccccc1 [N^α -[(2S,3R)-3-benzyl-4-oxo-2-azetidinylcarbonyl]-L-histidyl-L-prolinamide] | 0.04 |  |
| NC(=O)[C@@H]1CCCN1C(=O)[C@H](Cc1c[nH]cn1)NC(=O)[C@@H]1CCC(=O)N1 [TRH, L-pyroglutamyl-L-histidyl-L-prolinamide, reference compound] |  | LD50 at 24 h (Acute toxicity (i.v.); male mice, observed for 24 hours, read-out: LD50 (i.v.)): 751 mg/kg; Reversal effect against pentobarbitalhypothermia ED1.5° C (mice): 0.1 mg/kg |
| NC(=O)[C@@H]1CCCN1C(=O)[C@H](Cc1c[nH]cn1)NC(=O)[C@@H]1CC(=O)N1CO [N^α -[(S)-1-hydroxymethyl-4-oxo-2-azetidinylcarbonyl]-L-histidyl-L-prolinamide] | 0.04 |  |
| [N-]=[N+]=N[C@H]1C(=O)N[C@@H]1C(=O)N[C@@H](Cc1c[nH]cn1)C(=O)N1CCC[C@H]1C(N)=O [N^α -[(2S,3R)-3-azido-4-oxo-2-azetidinylcarbonyl]-L-histidyl-L-prolinamide] | < 0.01 |  |
| CC1(C)C(=O)N[C@@H]1C(=O)N[C@@H](Cc1c[nH]cn1)C(=O)N1CCC[C@H]1C(N)=O [N^α -[(S)-3,3-dimethyl-4-oxo-2-azetidinylcarbonyl]-L-histidyl-L-prolinamide] |  | LD50 at 24 h (Acute toxicity (i.v.)): > 800 mg/kg |
| Cn1cnc(C[C@H](NC(=O)[C@H]2NC(=O)C2(C)C)C(=O)N2CCC[C@H]2C(N)=O)c1 [N^α -[(S)-3,3-dimethyl-4-oxo-2-azetidinylcarbonyl]-.tau.-methyl-L-histidyl-L-prolinamide] | 0.01 |  |
| CS[C@H]1C(=O)N[C@@H]1C(=O)N[C@@H](Cc1c[nH]cn1)C(=O)N1CCC[C@H]1C(N)=O [N^α -[(2R,3R)-3-methylthio-4-oxo-2-azetidinylcarbonyl]-L-histidyl-L-prolinamide] | 0.08 |  |
| CC(O)[C@H]1C(=O)N[C@@H]1C(=O)N[C@@H](Cc1c[nH]cn1)C(=O)N1CCC[C@H]1C(N)=O (stereo partly drawn) [N^α -[(2S,3S)-3-(1-hydroxyethyl)-4-oxo-2-azetidinylcarbonyl]-L-histidyl-L-prolinamide] | 0.07 |  |
